Results: article PMC7407272, “Induction of Lysosome Membrane Permeabilization as a Therapeutic Strategy to Target Pancreatic Cancer Stem Cells” (Cancers, 2020)

Assays:
[1] = target: T1, PHKG1 (Homo sapiens, UniProt Q16816); experiment: KINOMEscan; type: binding; conditions: read-out: % Ctrl
T1 construct: purchased DiscoveRx KINOMEscan

[2] = tested on: FLT3(ITD,F691L); experiment: KINOMEscan; type: binding, human; conditions: 1 µM
[3] = target: T2, PIK3CA(M1043I) (Homo sapiens, UniProt P42336, M1043I); experiment: KINOMEscan; type: binding; conditions: read-out: % Ctrl
T2 construct: purchased DiscoveRx KINOMEscan

[4] = target: T3, GRK4 (Homo sapiens, UniProt P32298); experiment: KINOMEscan; type: binding; conditions: read-out: % Ctrl
T3 construct: purchased DiscoveRx KINOMEscan

[5] = target: T4, AURKB (Homo sapiens, UniProt Q96GD4); experiment: KINOMEscan; type: binding; conditions: read-out: % Ctrl
T4 construct: purchased DiscoveRx KINOMEscan

[6] = target: T5, HPK1 (Homo sapiens, UniProt Q92918); experiment: KINOMEscan; type: binding; conditions: read-out: % Ctrl
T5 construct: purchased DiscoveRx KINOMEscan

[7] = target: T6, IKK-epsilon (Homo sapiens, UniProt Q14164); experiment: KINOMEscan; type: binding; conditions: read-out: % Ctrl
T6 construct: purchased DiscoveRx KINOMEscan

[8] = target: T7, BMX (Homo sapiens, UniProt P51813); experiment: KINOMEscan; type: binding; conditions: read-out: % Ctrl
T7 construct: purchased DiscoveRx KINOMEscan

[9] = target: T8, PRKX (Homo sapiens, UniProt P51817); experiment: KINOMEscan; type: binding; conditions: read-out: % Ctrl
T8 construct: purchased DiscoveRx KINOMEscan

[10] = target: T9, RAF1 (Homo sapiens, UniProt P04049); experiment: KINOMEscan; type: binding; conditions: read-out: % Ctrl
T9 construct: purchased DiscoveRx KINOMEscan

[11] = target: T10, SGK3 (Homo sapiens, UniProt Q96BR1); experiment: KINOMEscan; type: binding; conditions: read-out: % Ctrl
T10 construct: purchased DiscoveRx KINOMEscan

[12] = target: T11, MAST1 (Homo sapiens, UniProt Q9Y2H9); experiment: KINOMEscan; type: binding; conditions: read-out: % Ctrl
T11 construct: purchased DiscoveRx KINOMEscan

[13] = target: T12, SNRK (Homo sapiens, UniProt Q9NRH2); experiment: KINOMEscan; type: binding; conditions: read-out: % Ctrl
T12 construct: purchased DiscoveRx KINOMEscan

[14] = target: T13, DAPK2 (Homo sapiens, UniProt Q9UIK4); experiment: KINOMEscan; type: binding; conditions: read-out: % Ctrl
T13 construct: purchased DiscoveRx KINOMEscan

[15] = target: T14, EGFR(L747-E749del, A750P) (Homo sapiens, UniProt P00533, A750P/DEL747-749); experiment: KINOMEscan; type: binding; conditions: read-out: % Ctrl
T14 construct: purchased DiscoveRx KINOMEscan

[16] = target: T15, MYO3B (Homo sapiens, UniProt Q8WXR4); experiment: KINOMEscan; type: binding; conditions: read-out: % Ctrl
T15 construct: purchased DiscoveRx KINOMEscan

[17] = target: T16, NEK11 (Homo sapiens, UniProt Q8NG66); experiment: KINOMEscan; type: binding; conditions: read-out: % Ctrl
T16 construct: purchased DiscoveRx KINOMEscan

[18] = target: T17, WNK1 (Homo sapiens, UniProt Q9H4A3); experiment: KINOMEscan; type: binding; conditions: read-out: % Ctrl
T17 construct: purchased DiscoveRx KINOMEscan

[19] = target: T18, YES (Homo sapiens, UniProt P07947); experiment: KINOMEscan; type: binding; conditions: read-out: % Ctrl
T18 construct: purchased DiscoveRx KINOMEscan

[20] = tested on: PDAC1 3D spheres; experiment: Viability curves on PDAC1 3D spheres; type: cell-based; conditions: Homo sapiens, 30 h
Source text: The PDAC patient-derived xenograft (PDX) Panc354 (referred to hereafter as PDAC3) was obtained from Dr. Manuel Hidalgo under a Material Transfer Agreement with the Spanish National Cancer Centre (CNIO), Madrid, Spain (Reference no. I409181220BSMH). PDAC1, PDAC2 and PDAC4 PDXs were established from primary patient resected tumors. Samples were provided by the BioBank Hospital Ramón y Cajal-IRYCIS (PT13/0010/0002), integrated in the Spanish National Biobanks Network and they were processed following standard operating procedures with the appropriate approval of the Ethical and Scientific Committees (Control no. No. Control: DE-BIOB-73 AC65, RG.BIOB-96 REV, and CI-BIOB-08-10-01 rev), with informed consent and according to Declaration of Helsinki principles. […]
Pancreatic CSC spheres were generated as previously described in ultra-low attachment plates (Corning) using CSC media: serum-free DMEM/F12 medium (1:1; #21331-020; Gibco, Waltham, MA, USA), supplemented with Pen/Strep (1:100; #1500-063; Gibco, Waltham, MA, USA), Fungizone (1:250; #15290-018; Gibco), L-Glutamine (1:100; #25030-024; Gibco, Waltham, MA, USA), B-27 (1:50; #17504-044; Gibco, Waltham, MA, USA) and basic fibroblast growth factor (FGF-b) (1:5000; Gibco, Waltham, MA, USA). […] To quantify spheres of > 40 μm, 1 mL of sample volume was analyzed with a CASY® Cell Counter (Roche Applied Sciences, Mannheim, Germany). […]

T4 sequence (Q96GD4 whole entry): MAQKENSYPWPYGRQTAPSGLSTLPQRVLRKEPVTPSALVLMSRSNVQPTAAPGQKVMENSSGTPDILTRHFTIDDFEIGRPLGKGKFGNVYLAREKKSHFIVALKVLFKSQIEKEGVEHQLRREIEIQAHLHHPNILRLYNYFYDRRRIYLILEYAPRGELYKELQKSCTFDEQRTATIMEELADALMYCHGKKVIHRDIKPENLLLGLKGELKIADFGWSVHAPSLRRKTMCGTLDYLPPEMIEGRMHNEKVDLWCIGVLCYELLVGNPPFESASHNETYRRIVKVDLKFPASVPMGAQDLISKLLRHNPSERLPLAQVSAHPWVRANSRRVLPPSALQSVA
T7 sequence (P51813 whole entry): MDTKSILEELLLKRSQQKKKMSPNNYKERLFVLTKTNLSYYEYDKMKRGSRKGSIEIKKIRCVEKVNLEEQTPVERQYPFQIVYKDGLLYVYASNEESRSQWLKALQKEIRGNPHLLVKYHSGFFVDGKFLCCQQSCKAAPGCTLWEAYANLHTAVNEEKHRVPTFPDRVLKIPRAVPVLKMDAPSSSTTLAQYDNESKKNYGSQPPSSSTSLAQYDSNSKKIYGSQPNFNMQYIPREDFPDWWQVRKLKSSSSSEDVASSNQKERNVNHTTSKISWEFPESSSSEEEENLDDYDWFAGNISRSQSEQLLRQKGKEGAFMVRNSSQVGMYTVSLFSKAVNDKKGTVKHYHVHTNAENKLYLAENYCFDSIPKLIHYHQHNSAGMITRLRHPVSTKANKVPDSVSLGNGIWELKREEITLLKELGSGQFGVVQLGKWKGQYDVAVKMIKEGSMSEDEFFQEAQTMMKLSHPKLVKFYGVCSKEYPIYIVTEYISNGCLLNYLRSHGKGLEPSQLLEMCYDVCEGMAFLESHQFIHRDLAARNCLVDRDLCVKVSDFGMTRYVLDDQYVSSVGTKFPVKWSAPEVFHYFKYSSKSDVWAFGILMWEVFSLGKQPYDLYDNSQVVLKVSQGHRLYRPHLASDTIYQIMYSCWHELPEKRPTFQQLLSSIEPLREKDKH
T3 sequence (P32298 whole entry): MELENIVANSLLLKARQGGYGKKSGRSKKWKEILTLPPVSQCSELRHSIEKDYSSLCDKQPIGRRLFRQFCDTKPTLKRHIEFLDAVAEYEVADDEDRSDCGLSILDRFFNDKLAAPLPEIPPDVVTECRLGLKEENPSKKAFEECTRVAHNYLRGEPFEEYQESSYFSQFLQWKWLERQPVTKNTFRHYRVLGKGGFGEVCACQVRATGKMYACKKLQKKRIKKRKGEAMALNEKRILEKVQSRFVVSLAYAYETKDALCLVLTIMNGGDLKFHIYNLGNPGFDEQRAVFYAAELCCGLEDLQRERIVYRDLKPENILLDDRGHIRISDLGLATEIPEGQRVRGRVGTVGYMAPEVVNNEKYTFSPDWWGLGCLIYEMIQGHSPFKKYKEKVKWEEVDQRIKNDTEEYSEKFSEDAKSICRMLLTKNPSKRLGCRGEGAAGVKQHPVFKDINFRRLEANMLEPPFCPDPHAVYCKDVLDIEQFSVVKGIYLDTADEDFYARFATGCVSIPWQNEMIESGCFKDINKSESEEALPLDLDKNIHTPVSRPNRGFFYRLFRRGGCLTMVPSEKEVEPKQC
T13 sequence (Q9UIK4 whole entry): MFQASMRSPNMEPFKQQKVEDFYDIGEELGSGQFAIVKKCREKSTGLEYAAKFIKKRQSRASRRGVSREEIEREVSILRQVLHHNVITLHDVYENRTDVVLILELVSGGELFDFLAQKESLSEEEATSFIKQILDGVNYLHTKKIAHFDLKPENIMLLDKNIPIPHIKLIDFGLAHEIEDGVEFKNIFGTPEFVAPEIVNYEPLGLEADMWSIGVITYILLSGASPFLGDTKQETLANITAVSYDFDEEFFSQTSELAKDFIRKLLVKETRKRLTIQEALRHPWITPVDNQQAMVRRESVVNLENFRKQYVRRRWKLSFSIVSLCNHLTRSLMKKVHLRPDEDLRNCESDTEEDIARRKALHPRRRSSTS
T11 sequence (Q9Y2H9 whole entry): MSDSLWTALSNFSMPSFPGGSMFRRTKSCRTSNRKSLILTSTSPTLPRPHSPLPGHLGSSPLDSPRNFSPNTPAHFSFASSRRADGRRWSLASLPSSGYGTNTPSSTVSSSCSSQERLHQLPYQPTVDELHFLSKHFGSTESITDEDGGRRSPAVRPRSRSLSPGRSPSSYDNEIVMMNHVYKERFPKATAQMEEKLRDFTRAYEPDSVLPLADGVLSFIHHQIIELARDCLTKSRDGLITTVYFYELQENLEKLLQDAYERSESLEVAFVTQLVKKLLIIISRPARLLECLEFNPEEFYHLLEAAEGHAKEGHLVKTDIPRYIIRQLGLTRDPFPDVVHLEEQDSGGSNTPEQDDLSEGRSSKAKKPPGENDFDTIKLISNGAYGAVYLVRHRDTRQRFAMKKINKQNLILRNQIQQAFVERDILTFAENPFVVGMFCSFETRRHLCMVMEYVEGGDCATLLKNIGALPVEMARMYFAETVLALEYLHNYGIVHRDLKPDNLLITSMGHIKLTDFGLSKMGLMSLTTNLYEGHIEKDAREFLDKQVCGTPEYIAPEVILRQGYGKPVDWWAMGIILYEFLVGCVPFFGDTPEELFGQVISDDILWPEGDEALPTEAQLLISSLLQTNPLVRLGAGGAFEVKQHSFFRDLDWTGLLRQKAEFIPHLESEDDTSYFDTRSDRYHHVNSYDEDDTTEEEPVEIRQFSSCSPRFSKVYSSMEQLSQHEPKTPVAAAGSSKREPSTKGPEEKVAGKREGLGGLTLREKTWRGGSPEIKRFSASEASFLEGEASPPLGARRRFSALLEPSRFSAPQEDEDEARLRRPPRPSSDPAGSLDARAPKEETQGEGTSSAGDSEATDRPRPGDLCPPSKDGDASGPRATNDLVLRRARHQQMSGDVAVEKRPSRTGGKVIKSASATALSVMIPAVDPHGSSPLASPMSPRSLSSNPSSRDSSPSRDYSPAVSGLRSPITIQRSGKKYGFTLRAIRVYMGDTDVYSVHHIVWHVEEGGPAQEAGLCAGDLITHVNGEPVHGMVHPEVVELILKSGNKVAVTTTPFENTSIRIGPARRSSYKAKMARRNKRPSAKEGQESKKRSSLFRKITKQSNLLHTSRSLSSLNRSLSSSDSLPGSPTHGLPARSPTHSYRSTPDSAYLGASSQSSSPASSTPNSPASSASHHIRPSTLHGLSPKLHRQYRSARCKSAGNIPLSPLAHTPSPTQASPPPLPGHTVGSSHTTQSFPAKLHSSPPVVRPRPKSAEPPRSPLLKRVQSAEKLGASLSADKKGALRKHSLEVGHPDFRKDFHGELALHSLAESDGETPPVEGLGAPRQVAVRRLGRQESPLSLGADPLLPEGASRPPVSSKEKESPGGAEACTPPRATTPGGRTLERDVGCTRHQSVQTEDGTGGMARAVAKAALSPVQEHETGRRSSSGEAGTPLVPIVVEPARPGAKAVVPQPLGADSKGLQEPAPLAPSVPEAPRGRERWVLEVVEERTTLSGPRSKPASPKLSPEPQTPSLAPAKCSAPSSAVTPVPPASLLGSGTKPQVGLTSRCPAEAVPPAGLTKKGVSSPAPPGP
T5 sequence (Q92918 whole entry): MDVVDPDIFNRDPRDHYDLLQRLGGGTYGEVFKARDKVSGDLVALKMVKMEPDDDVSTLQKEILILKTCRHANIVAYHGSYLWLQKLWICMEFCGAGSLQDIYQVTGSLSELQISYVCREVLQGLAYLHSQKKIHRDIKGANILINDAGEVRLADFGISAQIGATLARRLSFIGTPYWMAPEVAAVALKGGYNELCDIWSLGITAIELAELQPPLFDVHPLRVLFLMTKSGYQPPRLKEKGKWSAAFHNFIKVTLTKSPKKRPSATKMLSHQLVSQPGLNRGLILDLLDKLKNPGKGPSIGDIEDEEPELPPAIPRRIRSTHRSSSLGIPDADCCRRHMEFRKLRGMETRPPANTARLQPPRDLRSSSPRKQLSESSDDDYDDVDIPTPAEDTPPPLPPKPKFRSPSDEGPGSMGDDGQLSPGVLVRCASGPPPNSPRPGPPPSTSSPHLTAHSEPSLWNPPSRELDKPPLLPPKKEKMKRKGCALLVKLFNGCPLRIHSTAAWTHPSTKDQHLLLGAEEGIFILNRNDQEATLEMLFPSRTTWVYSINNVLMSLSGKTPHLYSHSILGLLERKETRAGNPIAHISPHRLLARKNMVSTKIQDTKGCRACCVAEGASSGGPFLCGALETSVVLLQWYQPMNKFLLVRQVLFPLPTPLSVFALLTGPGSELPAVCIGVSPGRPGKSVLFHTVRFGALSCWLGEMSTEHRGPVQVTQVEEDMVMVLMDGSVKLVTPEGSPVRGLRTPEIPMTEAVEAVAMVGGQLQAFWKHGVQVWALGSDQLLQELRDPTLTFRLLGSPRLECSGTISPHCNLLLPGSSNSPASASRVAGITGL
T9 sequence (P04049 whole entry): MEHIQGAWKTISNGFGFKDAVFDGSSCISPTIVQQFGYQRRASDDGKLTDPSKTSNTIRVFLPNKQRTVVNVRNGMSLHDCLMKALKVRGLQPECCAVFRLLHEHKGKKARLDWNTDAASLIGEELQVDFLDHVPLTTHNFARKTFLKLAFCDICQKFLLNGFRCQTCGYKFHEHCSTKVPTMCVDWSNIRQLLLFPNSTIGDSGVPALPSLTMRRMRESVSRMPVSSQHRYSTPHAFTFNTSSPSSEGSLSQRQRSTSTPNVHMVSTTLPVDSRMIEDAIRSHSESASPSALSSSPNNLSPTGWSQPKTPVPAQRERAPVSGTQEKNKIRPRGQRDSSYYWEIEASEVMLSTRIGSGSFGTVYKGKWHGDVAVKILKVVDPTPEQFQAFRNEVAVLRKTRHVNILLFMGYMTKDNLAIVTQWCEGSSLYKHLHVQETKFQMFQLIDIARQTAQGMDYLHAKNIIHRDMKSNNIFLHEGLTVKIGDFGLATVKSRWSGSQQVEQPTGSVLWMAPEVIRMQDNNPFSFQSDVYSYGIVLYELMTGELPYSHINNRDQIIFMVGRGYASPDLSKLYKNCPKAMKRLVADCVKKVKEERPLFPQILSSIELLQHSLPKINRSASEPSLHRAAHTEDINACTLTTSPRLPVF

## CN1CCC(CNc2ccc3ncc(C(=O)Nc4cccc(OC(F)(F)F)c4)n3n2)CC1 [Cpd 2]
[1]
  remaining binding at 1 µM: 100%
[2]
  % Ctrl: 34%
[3]
  remaining binding at 1 µM: 90%
[4]
  remaining binding at 1 µM: 93%
[5]
  remaining binding at 1 µM: 97%
[6]
  remaining binding at 1 µM: 92%
[7]
  remaining binding at 1 µM: 100%
[8]
  remaining binding at 1 µM: 100%
[9]
  remaining binding at 1 µM: 100%
[10]
  remaining binding at 1 µM: 100%
[11]
  remaining binding at 1 µM: 100%
[12]
  remaining binding at 1 µM: 59%
[13]
  remaining binding at 1 µM: 98%
[14]
  remaining binding at 1 µM: 89%
[15]
  remaining binding at 1 µM: 84%
[16]
  remaining binding at 1 µM: 100%
[17]
  remaining binding at 1 µM: 79%
[18]
  remaining binding at 1 µM: 100%
[19]
  remaining binding at 1 µM: 95%

## COc1nc2ccc(NCC3CCN(C)CC3)nn2c1C(=O)Nc1cccc(OC(F)(F)F)c1 [Cpd 1]
[20]
  EC50: ~2.91 µM
